Test results reported in patent US7563819B1, “Esters of 5-aminolevulinic acid as photosensitizing agents in photochemotherapy” (Photocure ASA, priority 2000, dated 2009).
“Also recorded” adds a separate entry of the source.

What was measured:
WiDr cells = test: Measurement of porphyrin formation in cell culture in vitro; type: cell-based; details: 4 h incubation; for POTENCY (Relative ability to induce porphyrin formation): 0.001-1 mM, relative to ALA = 1; for potency in inducing cellular porphyrin formation relative to ALA: fold versus ALA; for ALA concentration giving the same porphyrin formation as 0.001 mM ester: ester at 0.001 mM
Protocol: The test compounds were dissolved in DMSO to a concentration of 100 mM (stock solution). Appropriate concentrations were obtained by dilution of the stock solutions with phosphate-buffered saline (PBS) or culture medium.
WiDr cells, derived form a primary adenocarcinoma of the rectosigmoid colon, were subcultured in RPMI 1640 medium (Gibco) containing 10% fetal calf serum, 100 U/ml penicillin, 100 μg/ml streptomycin and 1% glutamine. Cells were split 1:100 twice a week, and maintained at 37° C. and 5. % CO2 in a humid environment.
5×10^5 WiDr cells in 2 ml of RPMI medium as described in the previous paragraph were added to each well in 6-well plastic tissue-culture plates (Nunc) and left for 48 hr at 37° C. and 5% CO2 in a humid environment for proper attachment to the substratum. The cells were then washed twice with RPMI 1640-medium without serum, followed by the addition to the wells of the appropriate dilutions of the test compounds in 2 ml of fresh culture medium to final concentrations of 0.001, 0.01, 0.1 and 1 mM in duplicate. The cells were incubated at 37° C. for four hours.
After treatment as described in the paragraph “treatment conditions” the cells were washed twice with PBS and brought into a solution of 1M HClO4 in 50% MeOH by scraping the cells off the substratum by means of a Costar cell scraper. Cell debris was removed by centrifugation. The porphyrin content of each sample was determined fluorometrically using a Perkin Elmer LS50B spectrofluorimeter (excitation at 407 nm, emission was measured at 606 nm using a long pass cut-off filter (530 nm) on the emission side). The fluorescence in each sample was calculated relative to the protein content in control cells as measured by the Bradford method.

murine skin = test: Porphyrin formation (skin fluorescence) after topical application onto murine skin; type: in vivo, Female Balb/c athymic nude mice; details: topical cream on nude mouse skin, 1% (w/w), except compounds 16, 29, 30, 31 at 3% and 17-19 at 10%
Protocol: The test compounds were formulated in Unguentum Merck (cream base available from Merck, consisting of silicon dioxide, paraffin liq., vaseline, album, cetostearol, polysorbat. 40, glycerol monostearate, Miglyol®812 (a mixture of plant fatty acids), polypropyleneglycol, and purified water) to the desired concentration. Concentrations are given as % (w/w) calculated as hydrochlorides. The formulations were prepared the day before the experiment commenced and stored in the refrigerator until the day of use.
Female Balb/c athymic nude mice, weighing about 22 g, obtained from the Department of Laboratory Animals, The Norwegian Radium Hospital (Montebello, Oslo, Norway) were used in the studies.
Three mice per group was used. Each mouse received 0.05-0.1 g of formulation topically applied at the right flank of the body, evenly distributed and covered with a dressing (Opsite Flexigrid; Smith and Nephew Medical Ltd., Hull, England). The fiber point measuring device consisted of a bundle of optical fibers connected to a spectrofluorimeter which produced the excitation light of 407 nm. The excitation light, which is able to penetrate 0.1-0.5 mm into the tissue, was led through half of the fibers to the mouse skin. The resulting emission fluorescence spectrum (550-750) nm was collected and led through the remaining fibers into a photomultiplier for quantification.
After application of the cream formulation, the fluorescence spectrum from porphyrins in the skin was measured by the fiber-optical method at different intervals of time after administration.
The fluorescence intensity varied from experiment to experiment. Therefore 1% (w/w) hexyl 5-aminolevulinate-HCl was included in each experiment as an internal control.

Compound	POTENCY (Relative ability to induce porphyrin formation) (WiDr cells)	skin fluorescence level after topical application (murine skin)	potency in inducing cellular porphyrin formation relative to ALA (WiDr cells)	further results
NCC(=O)CCC(=O)O [ALA, 5-aminolevulinic acid]	1	–	–	–
CCCCC(C)OC(=O)CCC(=O)CN.Cl (stereo not shown) [Compound 1, 1-methyl-pentyl 5-amino-4-oxopentanoate Hydrochloride]	3	intermediate fluorescence levels	–	efficiency in inducing porphyrin formation compared with ALA (WiDr cells; at low concentrations): only slightly better than ALA
CC(C)c1ccc(COC(=O)CCC(=O)CN)cc1.Cl [Compound 2, 4-Isopropylbenzyl 5-amino-4-oxopentanoate Hydrochloride]	200	intermediate levels of fluorescence	approximately 200 times	–
Cc1ccc(COC(=O)CCC(=O)CN)cc1.Cl [Compound 3, 4-Methylbenzyl 5-amino-4-oxopentanoate Hydrochloride]	200	high and similar levels of fluorescence	approximately 200 times	–
Cl.NCC(=O)CCC(=O)OCc1ccccc1 [Compound 4, Benzyl 5-amino-4-oxopentanoate hydrochloride]	100-600	high levels of fluorescence	–	efficiency in inducing cellular porphyrin synthesis compared with ALA (WiDr cells): considerably more efficient than ALA; ALA concentration giving the same porphyrin formation as 0.001 mM ester (WiDr cells): 0.6 mM
Cl.NCC(=O)CCC(=O)OCCc1ccccc1 [Compound 5, 2-Phenylethyl 5-amino-4-oxopentanoate Hydrochloride]	500	–	–	efficiency in inducing cellular porphyrin synthesis compared with ALA (WiDr cells): considerably more efficient than ALA; ALA concentration giving the same porphyrin formation as 0.001 mM ester (WiDr cells): 0.4 mM; skin fluorescence level after topical application (murine skin; Hydrochloride): low levels of fluorescence; skin fluorescence level after topical application (murine skin; listed as 2-phenyl-ethyl 5-aminolevulinate, Hydrochloride): relatively modest fluorescence levels
CCCCCCOC(=O)CCC(=O)CN.Cl [Compound 6, hexyl 5-aminolevulinate-HCl, reference compound]	100	highest fluorescence; also recorded: high and similar levels of fluorescence	approximately 100 times	–
Cl.NCC(=O)CCC(=O)OC1CCCCC1 [Compound 7, Cyclohexyl 5-amino-4-oxopentanoate Hydrochloride]	1	low levels of fluorescence	–	efficiency in inducing porphyrin formation compared with ALA (WiDr cells; at higher concentrations): less effective than ALA; efficiency in inducing porphyrin formation compared with ALA (WiDr cells; at low concentrations): only slightly more efficient than ALA
CC(C)CCCOC(=O)CCC(=O)CN.Cl [Compound 8, 4-Methyl-1-pentyl 5-amino-4-oxopentanoate Hydrochloride]	100	high fluorescence levels	approximately 100 times	–
Cl.NCC(=O)CCC(=O)OCc1ccc(C(F)(F)F)cc1 [Compound 9, 4-(Trifluoromethyl)benzyl 5-amino-4-oxopentanoate Hydrochloride]	200	high fluorescence levels	approximately 200 times	–
CC(C)(C)c1ccc(COC(=O)CCC(=O)CN)cc1.Cl [Compound 10, 4-t-Butylbenzyl 5-amino-4-oxopentanoate Hydrochloride]	200	Intermediate fluorescence levels	approximately 200 times	–
Cl.NCC(=O)CCC(=O)OCc1ccc([N+](=O)[O-])cc1 [Compound 11, 4-Nitrobenzyl 5-amino-4-oxopentanoate Hydrochloride]	200	high levels of fluorescence	approximately 200 times	–
CCCC(CC)OC(=O)CCC(=O)CN.Cl (stereo not shown) [Compound 12, 3-Hexyl 5-amino-4-oxopentanoate Hydrochloride]	–	gave porphyrin formation	–	–
CCCC(C)COC(=O)CCC(=O)CN.Cl (stereo not shown) [Compound 13, 2-Methyl-1-pentyl 5-amino-4-oxopentanoate Hydrochloride]	–	gave porphyrin formation	–	–
Cl.NCC(=O)CCC(=O)OCCCCc1ccccc1 [Compound 14, 4-Phenyl-1-butyl 5-amino-4-oxopentanoate Hydrochloride]	–	only low fluorescence levels	–	–
Cl.NCC(=O)CCC(=O)OCc1ccc(F)cc1 [Compound 15, 4-Fluorobenzyl 5-amino-4-oxopentanoate Hydrochloride]	–	Slightly lower levels	–	–
Cl.NCC(=O)CCC(=O)OCc1ccccc1F [Compound 17, 2-Fluorobenzyl 5-amino-4-oxopentanoate Hydrochloride]	–	intermediate/high activities	–	–
Cl.NCC(=O)CCC(=O)OCc1c(F)c(F)c(F)c(F)c1F [Compound 18, 2,3,4,5,6-Pentafluorobenzyl 5-amino-4-oxopentanoate Hydrochloride]	–	intermediate/high activities	–	–
Cl.NCC(=O)CCC(=O)OCc1ccc(Cl)cc1 [Compound 19, 4-Chlorobenzyl 5-amino-4-oxopentanoate Hydrochloride]	–	high fluorescence levels	–	–
Cl.Cl.NCC(=O)CCC(=O)OCc1cccnc1 [Compound 26, 3-Pyridinylmethyl 5-amino-4-Oxopentanoate Dihydrochloride]	–	intermediate fluorescence	–	–
Cl.NCC(=O)CCC(=O)OCc1ccc(-c2ccccc2)cc1 [Compound 27, 4-Diphenylmethyl 5-amino-4-oxopentanoate Hydrochloride]	–	relatively low fluorescence	–	–
COc1ccc(COC(=O)CCC(=O)CN)cc1.Cl [Compound 28, 4-Methoxybenzyl 5-amino-4-oxopentanoate Hydrochloride]	–	intermediate fluorescence	–	–
CC(=O)OC(C)OC(=O)NCC(=O)CCC(=O)OCc1ccccc1 (stereo not shown) [Compound 30, Benzyl 5-[[1-(acetyloxy)ethoxy]carbonyl]amino-4-oxopentanoate]	–	intermediate/high fluorescence	–	–
